# Measurements as given in patent US9597407B2, “Targeted antimicrobial moieties” (C3 Jian, Inc., priority 2009, dated 2017).
# “Also recorded” adds a separate entry of the source.
# How the values were obtained:
# microorganisms = assay: Morphology, biofilm and growth disruption by peptides (Table 5); assay type: cell-based; design: key: A: Peptide aggregates; B: Less hyphal formation; Clumps; Diffuse clumps and small polyps; F: Diffuse growth; H: Thin; I: Growth inhibition; Microcolony formation; Rippled; Small polyps; Thick; W: Halo formation on top, microlonies on bottom
# Text: In certain embodiments peptides that induce alterations in phenotype or other biological activities can also be used as antimicrobial effector moieties.
# bacteria = assay: Binding of targeting peptides to microorganisms (Table 3); details: preferably 1x PBS; for Target(s) (microorganisms bound by the targeting peptide) / Target(s) (microorganism bound by the targeting peptide): peptide binding in aqueous buffers that varied depending on peptide solubility
# [1] = microorganism bound by the targeting peptide, binding in aqueous buffers chosen by peptide solubility
substance,measurement,setting,value
PF-427 (YVLEYHGLRATQDVDAFMAL; Peptide with targeting and/or antimicrobial activity),"Organism, effect (morphology, biofilm and growth disruption)",microorganisms; E. coli,E. coli (C)
same,"Organism, effect (morphology, biofilm and growth disruption)",microorganisms; E. faecalis,E. faecalis (C)
same,"Organism, effect (morphology, biofilm and growth disruption)",microorganisms; MRSA,MRSA (C)
same,"Organism, effect (morphology, biofilm and growth disruption)",microorganisms; S. pneumoniae,S. pneumoniae (R)
same,Target(s) (microorganisms bound by the targeting peptide),bacteria,M. luteus; also recorded: P. aeruginosa; also recorded: C. albicans; also recorded: C. jejuni
PF-164 (EEVSRALAGIGLGLGCRIG; Peptide with targeting and/or antimicrobial activity),"Organism, effect",microorganisms; C. jeikeium,C. jeikeium (R)
same,Target(s),bacteria; [1],S. epidermidis; also recorded: M. luteus; also recorded: E. coli; also recorded: C. jeikeium
PF-588 (ESVEAIKAKAIK; Peptide with targeting and/or antimicrobial activity),"Organism, effect (morphology, biofilm and growth disruption)",microorganisms; E. faecalis,E. faecalis (A)
same,Target(s) (microorganisms bound by the targeting peptide),bacteria,S. epidermidis; also recorded: E. coli; also recorded: C. albicans; also recorded: E. faecalis; also recorded: C. jeikeium; also recorded: C. jejuni
PF-584 (SYIKNLSNQKFLIAF; Peptide with targeting and/or antimicrobial activity),"Organism, effect (morphology, biofilm and growth disruption)",microorganisms; C. jejuni,C. jejuni (D)
same,"Organism, effect (morphology, biofilm and growth disruption)",microorganisms; E. coli,E. coli (C)
same,"Organism, effect (morphology, biofilm and growth disruption)",microorganisms; E. faecalis,E. faecalis (D)
same,"Organism, effect (morphology, biofilm and growth disruption)",microorganisms; MRSA,MRSA (D)
same,"Organism, effect (morphology, biofilm and growth disruption)",microorganisms; S. epidermidis,S. epidermidis (C)
same,"Organism, effect (morphology, biofilm and growth disruption)",microorganisms; S. pneumoniae,S. pneumoniae (D)
same,Target(s) (microorganisms bound by the targeting peptide),bacteria,S. epidermidis and M. luteus and P. mirabilis and C. albicans and MRSA and S. pneumoniae and E. faecalis and C. jeikeium
PF-C291 (HPFLTGTGCPLFLIFRLFFVKAYFSFTVF; Peptide with targeting and/or antimicrobial activity),"Organism, effect (morphology, biofilm and growth disruption)",microorganisms; F. nucleatum,F. nucleatum (T)
same,"Organism, effect (morphology, biofilm and growth disruption)",microorganisms; S. mutans,S. mutans (F)
same,Target(s) (microorganism bound by the targeting peptide),bacteria,A. naeslundii; also recorded: F. nucleatum; also recorded: P. gingivalis; also recorded: S. mutans
PF-665 (chain 1 VLRVATAVGEVPTGL; chain 2 VLRVATAVGEVPTGL; Peptide with targeting and/or antimicrobial activity),"Organism, effect (morphology, biofilm and growth disruption)",microorganisms; S. pneumoniae,S. pneumoniae (H)
same,Target(s) (microorganism bound by the targeting peptide),bacteria,Mycobacteria spp
PF-594 (IVSAIV; Peptide with targeting and/or antimicrobial activity),"Organism, effect (morphology, biofilm and growth disruption)",microorganisms; E. faecalis,E. faecalis (C)
same,Target(s) (microorganisms bound by the targeting peptide),bacteria,C. jeikeium
PF-065 (LEKNTRDNYFIHAIDRIYINTSKGLFPESELVAWG; Peptide with targeting and/or antimicrobial activity),"Organism, effect",microorganisms; C. jeikeium,C. jeikeium (A)
same,"Organism, effect",microorganisms; MRSA,MRSA (R)
same,"Organism, effect",microorganisms; S. epidermidis,S. epidermidis (D)
same,Target(s),"bacteria; microorganism the targeting peptide binds, binding in aqueous buffers that varied with peptide solubility",M. luteus and E. coli and P. aeruginosa and C. albicans and MRSA and S. pneumoniae and C. jeikeium and C. jejuni
PF-C075 (KALVISVFAIVFSIIFVKFFYWRDKK; Peptide with targeting and/or antimicrobial activity),"Organism, effect (morphology, biofilm and growth disruption)",microorganisms; F. nucleatum,F. nucleatum (T)
same,"Organism, effect (morphology, biofilm and growth disruption)",microorganisms; P. gingivalis,P. gingivalis (R)
same,"Organism, effect (morphology, biofilm and growth disruption)",microorganisms; S. mutans,S. mutans (F)
same,Target(s) (microorganism bound by the targeting peptide),bacteria,A. naeslundii; also recorded: F. nucleatum; also recorded: P. gingivalis; also recorded: S. mutans; also recorded: T. denticola
PF-593 (MEISTLKKEKLHVKDELSQYLANYKK; Peptide with targeting and/or antimicrobial activity),"Organism, effect (morphology, biofilm and growth disruption)",microorganisms; E. faecalis,E. faecalis (A)
same,Target(s) (microorganisms bound by the targeting peptide),bacteria,C. jeikeium
PF-655 (chain 1 DAPCFDDQFGDLKCQMC; chain 2 DAPCFDDQFGDLKCQMC; Peptide with targeting and/or antimicrobial activity),"Organism, effect (morphology, biofilm and growth disruption)",microorganisms; B. subtilis,B. subtilis (H)
same,"Organism, effect (morphology, biofilm and growth disruption)",microorganisms; MRSA,MRSA (M)
same,"Organism, effect (morphology, biofilm and growth disruption)",microorganisms; S. epidermidis,S. epidermidis (R)
same,"Organism, effect (morphology, biofilm and growth disruption)",microorganisms; S. pneumoniae,S. pneumoniae (H)
same,Target(s) (microorganism bound by the targeting peptide),bacteria,M. smegmatis
PF-699 (chain 1 GRAGVKCRRPTGR; chain 2 GRAGVKCRRPTGR; Peptide with targeting and/or antimicrobial activity),"Organism, effect (morphology, biofilm and growth disruption)",microorganisms; S. pneumoniae,S. pneumoniae (A)
same,Target(s) (microorganism bound by the targeting peptide),bacteria,Mycobacteria spp
SIGSMIGMYSFRHKTKHIKFTFGIPFILFLQFLLVYFYILK [PF-319],"Organism, effect",microorganisms; B. subtilis,B. subtilis (C)
same,"Organism, effect",microorganisms; S. epidermidis,S. epidermidis (C)
same,Target(s),bacteria; [1],S. epidermidis; also recorded: B. subtilis; also recorded: C. difficile
PF-397 (VEDLMEDLNA; Peptide with targeting and/or antimicrobial activity),"Organism, effect",microorganisms; S. epidermidis,S. epidermidis (C)
same,Target(s) (microorganisms bound by the targeting peptide),bacteria,S. epidermidis and MRSA and S. pneumoniae and E. faecalis and C. jejuni
PF-350 (LAVILRAIVY; Peptide with targeting and/or antimicrobial activity),"Organism, effect",microorganisms; E. coli,E. coli (C)
same,"Organism, effect",microorganisms; MRSA,MRSA (C)
same,"Organism, effect",microorganisms; S. epidermidis,S. epidermidis (C)
same,Target(s),bacteria; [1],S. epidermidis; also recorded: E. coli; also recorded: E. faecalis; also recorded: C. jeikeium; also recorded: C. jejuni
PF-C055 (YNLSIYIYFLHTITIAGLITLPFII; Peptide with targeting and/or antimicrobial activity),"Organism, effect (morphology, biofilm and growth disruption)",microorganisms; F. nucleatum,F. nucleatum (T)
same,"Organism, effect (morphology, biofilm and growth disruption)",microorganisms; S. mutans,S. mutans (I)
same,Target(s) (microorganism bound by the targeting peptide),bacteria,A. naeslundii; also recorded: F. nucleatum; also recorded: P. gingivalis; also recorded: S. mutans
PF-653 (chain 1 QSVHPLPAETPVADVI; chain 2 QSVHPLPAETPVADVI; Peptide with targeting and/or antimicrobial activity),"Organism, effect (morphology, biofilm and growth disruption)",microorganisms; S. pneumoniae,S. pneumoniae (H)
same,Target(s) (microorganism bound by the targeting peptide),bacteria,Mycobacteria spp
PF-C143 (VVFGGGDRLV; Peptide with targeting and/or antimicrobial activity),"Organism, effect (morphology, biofilm and growth disruption)",microorganisms; F. nucleatum,F. nucleatum (C)
same,Target(s) (microorganism bound by the targeting peptide),bacteria,A. naeslundii; also recorded: F. nucleatum; also recorded: P. gingivalis; also recorded: S. mutans; also recorded: T. denticola
PF-654 (chain 1 LSGRLAGRR; chain 2 LSGRLAGRR; Peptide with targeting and/or antimicrobial activity),"Organism, effect (morphology, biofilm and growth disruption)",microorganisms; C. albicans,C. albicans (B)
same,"Organism, effect (morphology, biofilm and growth disruption)",microorganisms; MRSA,MRSA (R)
same,"Organism, effect (morphology, biofilm and growth disruption)",microorganisms; S. pneumoniae,S. pneumoniae (A)
same,Target(s) (microorganism bound by the targeting peptide),bacteria,Mycobacteria spp
LSPRPIIVSRRSRADNNNDWSR [PF-143],"Organism, effect",microorganisms; P. aeruginosa,P. aeruginosa (C)
same,Target(s),bacteria; [1],S. epidermidis and MRSA and C. jeikeium
NTNDLLQAFELMGLGMAGVFIVLGILYIVAELLIKIFPVNN [PF-C194],"Organism, effect (morphology, biofilm and growth disruption)",microorganisms; F. nucleatum,F. nucleatum (T)
same,"Organism, effect (morphology, biofilm and growth disruption)",microorganisms; P. gingivalis,P. gingivalis (T)
same,"Organism, effect (morphology, biofilm and growth disruption)",microorganisms; S. mutans,S. mutans (F)
same,Target(s) (microorganism bound by the targeting peptide),bacteria,A. naeslundii; also recorded: F. nucleatum; also recorded: P. gingivalis; also recorded: S. mutans; also recorded: T. denticola
PF-776 (VSILLYLSATIILPNVLRLLVARAIIVRV; Peptide with targeting and/or antimicrobial activity),"Organism, effect (morphology, biofilm and growth disruption)",microorganisms; E. coli,E. coli (C)
same,"Organism, effect (morphology, biofilm and growth disruption)",microorganisms; M. luteus,M. luteus (C)
same,"Organism, effect (morphology, biofilm and growth disruption)",microorganisms; MRSA,MRSA (D)
same,"Organism, effect (morphology, biofilm and growth disruption)",microorganisms; S. epidermidis,S. epidermidis (D)
same,"Organism, effect (morphology, biofilm and growth disruption)",microorganisms; S. mutans,S. mutans (D)
same,"Organism, effect (morphology, biofilm and growth disruption)",microorganisms; S. pneumoniae,S. pneumoniae (C)
same,Target(s) (microorganism bound by the targeting peptide),bacteria,S. epidermidis and M. luteus and P. mirabilis and C. albicans and MRSA and S. pneumoniae and E. faecalis
PF-180 (SGLGDLGFSSEAK; Peptide with targeting and/or antimicrobial activity),"Organism, effect",microorganisms; S. epidermidis,S. epidermidis (C)
same,Target(s),bacteria; [1],S. epidermidis and M. luteus and P. aeruginosa and C. albicans and MRSA and E. faecalis and C. jejuni and M. smegmatis
PF-417 (DSYFRS; Peptide with targeting and/or antimicrobial activity),"Organism, effect",microorganisms; MRSA,MRSA (M)
same,"Organism, effect",microorganisms; S. epidermidis,S. epidermidis (M)
same,"Organism, effect",microorganisms; S. pneumoniae,S. pneumoniae (M)
same,Target(s) (microorganisms bound by the targeting peptide),bacteria,S. epidermidis; also recorded: C. jeikeium; also recorded: C. jejuni
PF-695 (chain 1 ALSVMLGNIPLVVPNANQL; chain 2 ALSVMLGNIPLVVPNANQL; Peptide with targeting and/or antimicrobial activity),"Organism, effect (morphology, biofilm and growth disruption)",microorganisms; E. faecalis,E. faecalis (R)
same,"Organism, effect (morphology, biofilm and growth disruption)",microorganisms; MRSA,MRSA (R)
same,"Organism, effect (morphology, biofilm and growth disruption)",microorganisms; S. pneumoniae,S. pneumoniae (C)
same,Target(s) (microorganism bound by the targeting peptide),bacteria,Mycobacteria spp
PF-424 (IAAFVTSRAFSDTVSPI; Peptide with targeting and/or antimicrobial activity),"Organism, effect (morphology, biofilm and growth disruption)",microorganisms; S. pneumoniae,S. pneumoniae (H)
same,Target(s) (microorganisms bound by the targeting peptide),bacteria,S. epidermidis and C. albicans and MRSA
PF-123 (TTRPQVAEDRQLDDALKETFPASDPISP; Peptide with targeting and/or antimicrobial activity),"Organism, effect",microorganisms; S. epidermidis,S. epidermidis (M)
same,Target(s),bacteria; [1],M. luteus; also recorded: E. coli
PF-301 (GIVLIGLKLIPLLANVLN; Peptide with targeting and/or antimicrobial activity),"Organism, effect",microorganisms; B. subtilis,B. subtilis (C)
same,"Organism, effect",microorganisms; S. epidermidis,S. epidermidis (C)
same,Target(s),bacteria; [1],C. difficile
